PMC10004187 (Molecules, 2023)

What was measured:
[1] = tested on: Vero cell lines (normal kidney epithelial cells); assay: SRB cytotoxicity assay against Vero cell line; format: cell-based; details: initial screening
Protocol: To investigate the cytotoxicity of potent compounds (8a, 8c, 8g, and 9i), an SRB assay was performed against Vero cell lines (normal kidney epithelial cells). The total protein generated when cells were treated with putative anticancer drugs was assessed using a very precise […] technique. […] It can readily connect with cells that have been fixed with trichloroacetic acid (TCA). A bright color is produced by the SRB dye when it binds solely to intracellular proteins, and the color is proportional to the quantity of protein present in the cell.

[2] = biological target: T1, butyrylcholinesterase (BuChE) (Homo sapiens, UniProt P06276); assay: biochemical
T1 sequence (P06276 29-602): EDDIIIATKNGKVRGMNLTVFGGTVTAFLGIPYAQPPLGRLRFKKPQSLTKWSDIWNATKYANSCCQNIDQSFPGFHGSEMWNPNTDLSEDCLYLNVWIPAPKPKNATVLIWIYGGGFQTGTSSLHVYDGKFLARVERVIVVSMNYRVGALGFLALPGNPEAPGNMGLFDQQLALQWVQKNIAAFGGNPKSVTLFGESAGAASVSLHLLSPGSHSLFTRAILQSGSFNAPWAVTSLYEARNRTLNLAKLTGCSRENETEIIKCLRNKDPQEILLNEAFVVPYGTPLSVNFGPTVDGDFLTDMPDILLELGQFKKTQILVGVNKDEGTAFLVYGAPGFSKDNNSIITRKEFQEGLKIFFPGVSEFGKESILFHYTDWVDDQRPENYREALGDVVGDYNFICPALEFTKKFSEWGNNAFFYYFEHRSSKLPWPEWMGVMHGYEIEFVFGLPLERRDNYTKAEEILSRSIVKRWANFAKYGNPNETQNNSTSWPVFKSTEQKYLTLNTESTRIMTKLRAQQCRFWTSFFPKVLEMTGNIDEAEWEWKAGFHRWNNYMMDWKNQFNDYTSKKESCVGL

[3] = biological target: T1, butyrylcholinesterase (BuChE); details: for Butyrylcholinesterase (BuChE) Inhibition %Inhibition: given for compounds with <50% inhibition, test concentration not given

Structure (SMILES): Cc1ccc2nc(N3CCCCC3)c(C=NNC(=O)c3ccccc3)cc2c1 [Compound 8a, N′-((6-methyl-2-(piperidin-1-yl)quinolin-3-yl)methylene)benzohydrazide]
- inhibition of Vero cells (toxicity towards normal kidney cells) [1]: less than 22%
- IC50 [2]: 4.64 ± 0.43 µM

Structure (SMILES): Cc1ccc2nc(N3CCCCC3)c(C=NNC(=O)c3cccc([N+](=O)[O-])c3)cc2c1 [Compound 8b, N′-((6-methyl-2-(piperidin-1-yl)quinolin-3-yl)methylene)-3-nitrobenzohydrazide]
- BuChE inhibition ability, fold reduction relative to 8g ([3]; Cl exchanged for NO2, vs lead 8g): 3 folds
- IC50 [2]: 4.71 ± 0.45 µM

Structure (SMILES): Cc1ccc2nc(N3CCCCC3)c(C=NNC(=O)c3ccc([N+](=O)[O-])cc3)cc2c1 [Compound 8c, N′-((6-methyl-2-(piperidin-1-yl)quinolin-3-yl)methylene)-4-nitrobenzohydrazide]
- inhibition of Vero cells (toxicity towards normal kidney cells) [1]: less than 22%
- IC50 [2]: 1.74 ± 0.03 µM

Structure (SMILES): Cc1ccc2nc(N3CCCCC3)c(C=NNC(=O)c3ccccc3N)cc2c1 [Compound 8d, 2-Amino-N′-((6-methyl-2-(piperidin-1-yl)quinolin-3-yl)methylene)benzohydrazide]
- Butyrylcholinesterase (BuChE) Inhibition %Inhibition [3]: 21%

Structure (SMILES): Cc1ccc2nc(N3CCCCC3)c(C=NNC(=O)c3ccc(N)cc3)cc2c1 [Compound 8e, 4-Amino-N′-((6-methyl-2-(piperidin-1-yl)quinolin-3-yl)methylene)benzohydrazide]
- Butyrylcholinesterase (BuChE) Inhibition %Inhibition [3]: 23%

Structure (SMILES): Cc1ccc2nc(N3CCCCC3)c(C=NNC(=O)c3ccccc3Cl)cc2c1 [Compound 8f, 2-Chloro-N′-((6-methyl-2-(piperidin-1-yl)quinolin-3-yl)methylene)benzohydrazide]
- Butyrylcholinesterase (BuChE) Inhibition %Inhibition [3]: 15%

Structure (SMILES): Cc1ccc2nc(N3CCCCC3)c(C=NNC(=O)c3cccc(Cl)c3)cc2c1 [Compound 8g, 3-Chloro-N′-((6-methyl-2-(piperidin-1-yl)quinolin-3-yl)methylene)benzohydrazide]
- inhibition of Vero cells (toxicity towards normal kidney cells) [1]: less than 22%
- IC50 [2]: 1.31 ± 0.05 µM

Structure (SMILES): Cc1ccc2nc(N3CCCCC3)c(C=NNC(=O)c3ccc(Cl)cc3)cc2c1 [Compound 8h, 4-Chloro-N′-((6-methyl-2-(piperidin-1-yl)quinolin-3-yl)methylene)benzohydrazide]
- Butyrylcholinesterase (BuChE) Inhibition %Inhibition [3]: 34%

Structure (SMILES): Cc1ccc2nc(N3CCCCC3)c(C=NNC(=O)c3ccc(Cl)cc3Cl)cc2c1 [Compound 8i, 2,4-Dichloro-N′-((6-methyl-2-(piperidin-1-yl)quinolin-3-yl)methylene)benzohydrazide]
- Butyrylcholinesterase (BuChE) Inhibition %Inhibition [3]: 39%

Structure (SMILES): COc1ccccc1C(=O)NN=Cc1cc2cc(C)ccc2nc1N1CCCCC1 [Compound 8j, 2-Methoxy-N′-((6-methyl-2-(piperidin-1-yl)quinolin-3-yl)methylene)benzohydrazide]
- Butyrylcholinesterase (BuChE) Inhibition %Inhibition [3]: 30%

Structure (SMILES): COc1cccc(C(=O)NN=Cc2cc3cc(C)ccc3nc2N2CCCCC2)c1 [Compound 8k, 3-Methoxy-N′-((6-methyl-2-(piperidin-1-yl)quinolin-3-yl)methylene)benzohydrazide]
- Butyrylcholinesterase (BuChE) Inhibition %Inhibition [3]: 28%

Structure (SMILES): COc1ccc(C(=O)NN=Cc2cc3cc(C)ccc3nc2N2CCCCC2)cc1 [Compound 8l, 4-Methoxy-N′-((6-methyl-2-(piperidin-1-yl)quinolin-3-yl)methylene)benzohydrazide]
- Butyrylcholinesterase (BuChE) Inhibition %Inhibition [3]: 15%

Structure (SMILES): Cc1ccc2nc(N3CCCCC3)c(C=NNC(=O)c3ccccc3O)cc2c1 [Compound 8m, 2-Hydroxy-N′-((6-methyl-2-(piperidin-1-yl)quinolin-3-yl)methylene)benzohydrazide]
- Butyrylcholinesterase (BuChE) Inhibition %Inhibition [3]: 13%

Structure (SMILES): Cc1cccc2cc(C=NNC(=O)c3ccccc3)c(N3CCCCC3)nc12 [Compound 9a, N′-((8-methyl-2-(piperidin-1-yl)quinolin-3-yl)methylene)benzohydrazide]
- Butyrylcholinesterase (BuChE) Inhibition %Inhibition [3]: 32%

Structure (SMILES): Cc1cccc2cc(C=NNC(=O)c3cccc([N+](=O)[O-])c3)c(N3CCCCC3)nc12 [Compound 9b, N′-((8-methyl-2-(piperidin-1-yl)quinolin-3-yl)methylene)-3-nitrobenzohydrazide]
- Butyrylcholinesterase (BuChE) Inhibition %Inhibition [3]: 27%

Structure (SMILES): Cc1cccc2cc(C=NNC(=O)c3ccc([N+](=O)[O-])cc3)c(N3CCCCC3)nc12 [Compound 9c, N′-((8-methyl-2-(piperidin-1-yl)quinolin-3-yl)methylene)-4-nitrobenzohydrazide]
- Butyrylcholinesterase (BuChE) Inhibition %Inhibition [3]: 32%

Structure (SMILES): Cc1cccc2cc(C=NNC(=O)c3ccccc3Cl)c(N3CCCCC3)nc12 [Compound 9d, 2-Chloro-N′-((8-methyl-2-(piperidin-1-yl)quinolin-3-yl)methylene)benzohydrazide]
- Butyrylcholinesterase (BuChE) Inhibition %Inhibition [3]: 38%

Structure (SMILES): Cc1cccc2cc(C=NNC(=O)c3cccc(Cl)c3)c(N3CCCCC3)nc12 [Compound 9e, 3-Chloro-N′-((8-methyl-2-(piperidin-1-yl)quinolin-3-yl)methylene)benzohydrazide]
- Butyrylcholinesterase (BuChE) Inhibition %Inhibition [3]: 40%

Structure (SMILES): Cc1cccc2cc(C=NNC(=O)c3ccc(Cl)cc3)c(N3CCCCC3)nc12 [Compound 9f, 4-Chloro-N′-((8-methyl-2-(piperidin-1-yl)quinolin-3-yl)methylene)benzohydrazide]
- Butyrylcholinesterase (BuChE) Inhibition %Inhibition [3]: 36%

Structure (SMILES): Cc1cccc2cc(C=NNC(=O)c3ccc(Cl)cc3Cl)c(N3CCCCC3)nc12 [Compound 9g, 2,4-Dichloro-N′-((8-methyl-2-(piperidin-1-yl)quinolin-3-yl)methylene)benzohydrazide]
- Butyrylcholinesterase (BuChE) Inhibition %Inhibition [3]: 32%

Structure (SMILES): COc1ccccc1C(=O)NN=Cc1cc2cccc(C)c2nc1N1CCCCC1 [Compound 9h, 2-Methoxy-N′-((8-methyl-2-(piperidin-1-yl)quinolin-3-yl)methylene)benzohydrazide]
- Butyrylcholinesterase (BuChE) Inhibition %Inhibition [3]: 33%

Structure (SMILES): COc1cccc(C(=O)NN=Cc2cc3cccc(C)c3nc2N2CCCCC2)c1 [Compound 9i, 3-Methoxy-N′-((8-methyl-2-(piperidin-1-yl)quinolin-3-yl)methylene)benzohydrazide]
- inhibition of Vero cells (toxicity towards normal kidney cells) [1]: less than 22%
- Butyrylcholinesterase (BuChE) Inhibition %Inhibition [3]: 27%

Structure (SMILES): COc1ccc(C(=O)NN=Cc2cc3cccc(C)c3nc2N2CCCCC2)cc1 [Compound 9j, 4-Methoxy-N′-((8-methyl-2-(piperidin-1-yl)quinolin-3-yl)methylene)benzohydrazide]
- Butyrylcholinesterase (BuChE) Inhibition %Inhibition [3]: 38%
